Consider five molecules from patent US4268685A, “Salicylamide esters and related pharmaceutical composition” (Neopharmed S.p.A., priority 1979, dated 1981).

Series [1] in a line: solubility of the product. The series is classed as physicochemical.
The conditions of series [2]: in vivo.
A further series can be described thus: hot plate test. The note with it: in vivo. The text has this: The pharmacological tests, as carried out with the compound of example 3, show: […]
(In general: Hot-plate and tail-flick tests time the reaction to a heat stimulus.)

The nature of series [3]: plasma content (bioavailability) after administration. The note with it: in vivo.
The test system of series [4] is prostaglandine synthetases. In words: forming of prostaglandine synthetases.
The conditions of series [5]: in vivo, po.

With `COc1ccc2cc([C@H](C)C(=O)Oc3ccccc3C(N)=O)ccc2c1` [Example 1, Ester of salicylamide with 2-(6'-methoxy-2'-naphtyl)-propionic acid], the solubility in acetone result in series [1] (acetone) is given as “soluble”. Further, in series [1] (alcohol), the solubility in alcohol entry was “little soluble”. The solubility in benzene entry in series [1] (benzene) is reported as “little soluble”. In series [1] (chloroform), the solubility in chloroform entry is reported as “little soluble”. For the same molecule, the solubility in pyridine result in series [1] (pyridine) is “soluble”. In addition, the solubility in water entry in series [1] (water) is listed as “insoluble”.

In the case of `CC(C)Cc1ccc(C(C)C(=O)Oc2ccccc2C(N)=O)cc1` (centres unmarked) [Example 3, Ester of salicylamide with 2-(4-isobutyl-phenyl)-propionic acid], in series [2] (po), the “time for which plasma content remains essentially unchanged” value was “more than 7 hours”. Besides, the “activity at the hot plate test” value in “hot plate test” is on record as “high activity”. Also, the time extended action result in series [3] is “time extended action”. Besides, the “effect on the forming of prostaglandine synthetases” value (“effect on the forming” below) in series [4] is on record as “enhanced”.

One may read the Tmax as the time at which the peak concentration occurs. Consider `CC(C)Cc1ccc(C(C)C(=O)O)cc1` (centres unmarked) [Ibuprofen, 2-(4-isobutyl-phenyl)-propionic acid], for which the “effect on the forming” value in series [4] was “opposite behaviour”. Further, in series [5], the time to peak (Tmax) is 1 h.

With `COc1ccc2c(c1)c(CC(=O)O)c(C)n2C(=O)c1ccc(Cl)cc1` [indomethacin], the “effect on the forming” value in series [4] is reported as “opposite behaviour”.

Regarding `NC(=O)c1ccccc1O` [salicylamide], the “presence of salicylamide in the plasma” value in series [2] is listed as “not present in the plasma”.
